# Test results taken from PMC4280904 (Journal of Veterinary Pharmacology and Therapeutics, 2014).
# Key:
# Set-up in all cases: species or system Wistar rats
# [1] = tested on: CYP3A; test: In vivo enzyme induction: erythromycin N-demethylase; conditions: rats, 40 mg/kg p.o. once daily 7 days
# [2] = tested on: CYP2B; test: In vivo enzyme induction: pentylresorufin O-depentylase; conditions: rats
# [3] = tested on: CYP1A; test: In vivo enzyme induction: ethylresorufin O-deethylase; conditions: rats
# [4] = tested on: CYP2A; test: In vivo enzyme induction: ethoxycoumarin O-deethylase; conditions: rats
# [5] = tested on: NAT2; test: In vivo enzyme induction: N-acetyltransferase, procainamide; conditions: rats, 20 mg/kg i.p. once daily 7 days
# [6] = 40 mg/kg p.o. once daily 7 days
# [7] = 40 mg/kg i.p. once daily 7 days
smiles,measurement,setting,value
"CCC1(c2ccccc2)C(=O)NC(=O)NC1=O [Phenobarbital, phenobarbital]",CYP3A enzyme activity relative to control,[1],3.5 fold
same,CYP2B enzyme activity relative to control,[2]; [6],17.7 fold
same,CYP1A enzyme activity relative to control,[3]; [6],5.5 fold
same,CYP2A enzyme activity relative to control,[4]; [6],2.6 fold
"C[C@@H]1C[C@H]2[C@@H]3CCC4=CC(=O)C=C[C@]4(C)[C@@]3(F)[C@@H](O)C[C@]2(C)[C@@]1(O)C(=O)CO [Dexamethasone, dexamethasone, reference compound]",NAT2 activity compared with untreated controls,[5],1.8 fold
O=c1cc(-c2ccccc2)oc2ccc3ccccc3c12 [β-naphthoflavone],CYP2B enzyme activity relative to control,[2]; [7],3.8 fold
same,CYP1A enzyme activity relative to control,[3]; [7],25.1 fold
same,CYP2A enzyme activity relative to control,[4]; [7],15.8 fold
